These are literature values, as cited in patent publication US20070134395A1, “Method of reducing manganese in defatted soy isolate” (priority 2005, published 2007).

Like-named read-outs stand apart in the source and are kept apart here.

The conditions of data set [1]: neonate, from soy-based infant formula.
For data set [2] the following is noted: neonate, excess Mn not metabolized.
For data set [3] the following is noted: calcium-deficient rat pups.

Turning to `[Mn+2]` [Mn, Manganese], the “Mn absorbed above metabolic need” value in data set [1] is reported as “approximately 1.1 mg”. The “share of excess Mn stored in the basal ganglia region” value in data set [2] was “about eight”. For the same compound, the “intestinal absorption of Mn” value runs as follows: (adults) “one percent to about two percent”; (neonatal, animal models) “seventy percent to about eighty percent”.
On to `CC(=O)[O-].CC(=O)[O-].[Mg+2]` [magnesium acetate], for which, in data set [3], the “greater amount of Mn in the cerebral column tissue and fluids” value is 900%.
